Tests used:
[1] = tested on: human subject suffering from osteoarthritis; test: Example B: capsule given to a human subject suffering from osteoarthritis; assay type: in vivo; conditions: capsule containing 70 mg daily for 5 years, 90 kg person
Procedure: A capsule for oral administration, according to the present invention, is made comprising:
A human subject weighing 90 kg (198 lbs.), suffering from osteoarthritis, is treated by a method of this invention. Specifically, for 5 years, a capsule containing 70 mg of the compound of Example 3 is administered daily to said subject.

[2] = tested on: patient suffering from chemical burns; test: Example D: topical composition for a patient suffering from chemical burns; assay type: in vivo, human; conditions: 0.20% w/v topical composition at each dressing change (b.i.d.)
Description: A topical composition for local administration, according to the present invention, is made comprising:
A patient suffering from chemical burns applies the composition at each dressing change (b.i.d.).

[3] = tested on: human subject suffering from rheumatoid arthritis; test: Example A: tablet given to a human subject suffering from rheumatoid arthritis; assay type: in vivo; conditions: three tablets (15 mg compound each) per day orally for 2 years, 60 kg person
Procedure: A tablet composition for oral administration, according to the present invention, is made comprising:
A human subject weighing 60 kg (132 lbs), suffering from rheumatoid arthritis, is treated by a method of this invention. Specifically, for 2 years, a regimen of three tablets per day is administered orally to said subject.

[4] = tested on: human subject with a premetastatic tumor; test: Example G: parenteral suspension injected next to a premetastatic tumor; assay type: in vivo; conditions: about 2.0 mL of 100 mg/mL suspension injected beside the tumor twice daily; after 30 days
Procedure: A composition for parenteral administration is made comprising:
The above ingredients are mixed, forming a suspension. Approximately 2.0 mL of the suspension is administered, via injection, to a human subject with a premetastatic tumor. The injection site juxtaposes the tumor. This dosage is repeated twice daily, for approximately 30 days.

[5] = tested on: patient having deep corneal abrasion; test: Example C: saline-based drops for a patient having deep corneal abrasion; assay type: in vivo, human; conditions: 5% w/w drop to each eye twice a day
Description: A saline-based composition for local administration, according to the present invention, is made comprising:
A patient having deep corneal abrasion applies the drop to each eye twice a day.

asthma sufferer = test: Example E: inhalation aerosol for an asthma sufferer; assay type: in vivo, human; conditions: 5.0% w/v aerosol, 0.01 mL sprayed into the mouth while inhaling
Procedure: An inhalation aerosol composition, according to the present invention, is made comprising: [table] An asthma sufferer sprays 0.01 mL via a pump actuator into the mouth while inhaling. Asthma symptoms are diminished.

O=C(O)[C@H](NS(=O)(=O)c1ccc(-c2ccc(Br)cc2)cc1)C1CCC2(CC1)OCCCO2 [Example 3, (R)-N-{[4′-bromo-(1,1′-biphenyl)-4-yl]-sulfonyl}-amino-(1,5-dioxa-spiro[5.5]undec-9-yl)-acetic]
advancement of erosion/fibrillation of the articular cartilage (x-ray, arthroscopy and/or MRI) [1]: no further advancement | scarring [2]: substantially diminished

COc1ccc(-c2ccc(S(=O)(=O)NC(C(=O)O)C3CCCC(N(Cc4ccccc4)S(C)(=O)=O)C3)cc2)cc1 (centres unmarked) [Example 31, N-{[4′-methoxy-(1,1′-biphenyl)-4-yl]-sulfonyl}-amino-[3-(N-benzyl-N-methanesulfonylamino)-cyclohexan-1-yl]-acetic acid]
inflammation at the end of the treatment period [3]: reduced inflammation | mobility at the end of the treatment period [3]: improved mobility without concomitant pain | symptoms of the disease [4]: subside

COc1ccc(-c2ccc(S(=O)(=O)NC(C(=O)O)C3CCC(O)CC3)cc2)cc1 (centres unmarked) [Example 1, N-{[4′-Methoxy-(1,1′-biphenyl)-4-yl]-sulfonylamino}-(4-hydroxycyclohexan-1-yl)-acetic Acid]
healing of deep corneal abrasion [5]: speeded | visual sequelae [5]: no visual sequelae

COc1ccc(-c2ccc(S(=O)(=O)NC(C(=O)O)C3CCCC(N(C)C(C)=O)C3)cc2)cc1 (centres unmarked) [Example 33, N-{[4′-methoxy-(1,1-biphenyl)-4-yl]-sulfonyl}-amino-[3-(N-methyl-N-acetylamino)-cyclohexan-1-yl]-acetic Acid]
asthma symptoms (asthma sufferer): diminished
